Test results published in patent publication US11339161B2, “Triazolo pyridines as modulators of gamma-secretase” (Boehringer Ingelheim International GmbH, priority 2017, dated 2022).

Columns and labels:
[1] = tested on: Aβ42 production; assay: Inhibition of Aβ42 production in H4 neuroglioma cells stably expressing human APP695 (MSD electrochemiluminescence); format: cell-based; conditions: H4 neuroglioma cells expressing human APP695, 22 hours incubation; Table 4a
Protocol: (§1) Cells were plated out to near confluency. The compounds to be tested were received as 10 mM stocks in 100% DMSO. A dilution series was initially generated in 100% DMSO and then diluted 200-fold in cell culture media such that the tested concentration range was 30 μM to 0.1 nM and the final DMSO concentration was 0.5%. The diluted compounds were incubated with the cells for 22 hours in an incubator at 37° C. and 5% CO2. Aβ42 levels were measured post-incubation from the supernatant of the cells using an Aβ42 specific electrochemiluminescence assay provided by Meso Scale Discovery (Catalog #L21CA-1). The measurement of Aβ42 levels were performed according to the manufacturer's protocol.

[2] = tested on: Aβ total; assay: Aβ total levels in H4 neuroglioma cells stably expressing human APP695 (MSD electrochemiluminescence); format: cell-based; conditions: selectivity ratio vs. Aβtotal, Table 4a
Protocol: as §1
Aβ total levels were likewise determined using a specific electrochemiluminescence assay provided by Meso Scale Discovery (Catalog #L21ZA-1) according to the manufacturer's protocol.

[3] = target: ABL1 (Homo sapiens, UniProt P00519); conditions: Z'-Lyte substrate Tyr 02, ATP bin 10 μM (ATP Km app 12 μM), read-out: IC50 of known inhibitor (inhibitor validation); cited from earlier work
[4] = target: CSF1R (FMS) (Homo sapiens, UniProt P07333); conditions: substrate Tyr 01, ATP bin 500 μM (ATP Km app 450 μM), read-out: IC50 of known inhibitor (inhibitor validation); cited from earlier work
[5] = target: LYN B (Homo sapiens, UniProt P07948); conditions: substrate Tyr 02, ATP bin 25 μM (ATP Km app 25 μM), read-out: IC50 of known inhibitor (inhibitor validation); cited from earlier work
Sequence of LYN B (P07948 1-491 isoform P07948-2): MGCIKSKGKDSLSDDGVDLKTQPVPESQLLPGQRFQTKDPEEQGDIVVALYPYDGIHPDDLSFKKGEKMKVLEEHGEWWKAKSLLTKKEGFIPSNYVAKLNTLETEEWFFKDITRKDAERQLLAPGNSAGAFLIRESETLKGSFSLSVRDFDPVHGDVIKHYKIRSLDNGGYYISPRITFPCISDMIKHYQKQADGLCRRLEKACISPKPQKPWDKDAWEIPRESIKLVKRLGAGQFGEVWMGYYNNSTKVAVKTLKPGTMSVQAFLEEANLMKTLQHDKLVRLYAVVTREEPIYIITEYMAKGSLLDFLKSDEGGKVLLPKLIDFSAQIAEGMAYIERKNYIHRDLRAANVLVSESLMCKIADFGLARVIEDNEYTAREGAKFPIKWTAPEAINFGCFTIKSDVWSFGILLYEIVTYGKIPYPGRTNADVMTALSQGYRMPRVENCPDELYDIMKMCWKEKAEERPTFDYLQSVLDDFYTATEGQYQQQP

Sequence of CSF1R (FMS) (P07333 20-972): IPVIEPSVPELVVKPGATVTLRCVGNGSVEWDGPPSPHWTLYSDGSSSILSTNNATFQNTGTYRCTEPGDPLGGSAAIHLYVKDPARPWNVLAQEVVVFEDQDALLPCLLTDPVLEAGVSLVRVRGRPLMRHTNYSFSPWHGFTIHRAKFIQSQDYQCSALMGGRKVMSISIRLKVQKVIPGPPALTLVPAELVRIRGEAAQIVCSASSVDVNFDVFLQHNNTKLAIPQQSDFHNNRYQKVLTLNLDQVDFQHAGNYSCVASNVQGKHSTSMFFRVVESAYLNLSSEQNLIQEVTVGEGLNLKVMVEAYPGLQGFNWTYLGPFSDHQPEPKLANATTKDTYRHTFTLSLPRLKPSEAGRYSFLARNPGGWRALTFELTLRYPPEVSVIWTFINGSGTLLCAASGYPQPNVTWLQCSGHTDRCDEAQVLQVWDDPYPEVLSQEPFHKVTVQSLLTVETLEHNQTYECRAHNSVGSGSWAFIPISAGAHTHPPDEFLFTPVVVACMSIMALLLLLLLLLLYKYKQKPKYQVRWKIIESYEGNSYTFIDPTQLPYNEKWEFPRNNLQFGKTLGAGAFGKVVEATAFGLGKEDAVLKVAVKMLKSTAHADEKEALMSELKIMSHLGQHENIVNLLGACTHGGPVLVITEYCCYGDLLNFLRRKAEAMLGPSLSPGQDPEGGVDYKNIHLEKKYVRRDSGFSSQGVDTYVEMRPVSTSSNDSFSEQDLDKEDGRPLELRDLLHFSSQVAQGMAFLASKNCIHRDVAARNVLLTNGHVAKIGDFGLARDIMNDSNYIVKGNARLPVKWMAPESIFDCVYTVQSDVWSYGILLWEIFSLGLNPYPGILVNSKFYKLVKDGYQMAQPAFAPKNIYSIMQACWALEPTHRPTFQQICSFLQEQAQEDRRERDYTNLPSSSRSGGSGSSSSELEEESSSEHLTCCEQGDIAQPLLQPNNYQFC
Sequence of ABL1 (P00519 whole entry): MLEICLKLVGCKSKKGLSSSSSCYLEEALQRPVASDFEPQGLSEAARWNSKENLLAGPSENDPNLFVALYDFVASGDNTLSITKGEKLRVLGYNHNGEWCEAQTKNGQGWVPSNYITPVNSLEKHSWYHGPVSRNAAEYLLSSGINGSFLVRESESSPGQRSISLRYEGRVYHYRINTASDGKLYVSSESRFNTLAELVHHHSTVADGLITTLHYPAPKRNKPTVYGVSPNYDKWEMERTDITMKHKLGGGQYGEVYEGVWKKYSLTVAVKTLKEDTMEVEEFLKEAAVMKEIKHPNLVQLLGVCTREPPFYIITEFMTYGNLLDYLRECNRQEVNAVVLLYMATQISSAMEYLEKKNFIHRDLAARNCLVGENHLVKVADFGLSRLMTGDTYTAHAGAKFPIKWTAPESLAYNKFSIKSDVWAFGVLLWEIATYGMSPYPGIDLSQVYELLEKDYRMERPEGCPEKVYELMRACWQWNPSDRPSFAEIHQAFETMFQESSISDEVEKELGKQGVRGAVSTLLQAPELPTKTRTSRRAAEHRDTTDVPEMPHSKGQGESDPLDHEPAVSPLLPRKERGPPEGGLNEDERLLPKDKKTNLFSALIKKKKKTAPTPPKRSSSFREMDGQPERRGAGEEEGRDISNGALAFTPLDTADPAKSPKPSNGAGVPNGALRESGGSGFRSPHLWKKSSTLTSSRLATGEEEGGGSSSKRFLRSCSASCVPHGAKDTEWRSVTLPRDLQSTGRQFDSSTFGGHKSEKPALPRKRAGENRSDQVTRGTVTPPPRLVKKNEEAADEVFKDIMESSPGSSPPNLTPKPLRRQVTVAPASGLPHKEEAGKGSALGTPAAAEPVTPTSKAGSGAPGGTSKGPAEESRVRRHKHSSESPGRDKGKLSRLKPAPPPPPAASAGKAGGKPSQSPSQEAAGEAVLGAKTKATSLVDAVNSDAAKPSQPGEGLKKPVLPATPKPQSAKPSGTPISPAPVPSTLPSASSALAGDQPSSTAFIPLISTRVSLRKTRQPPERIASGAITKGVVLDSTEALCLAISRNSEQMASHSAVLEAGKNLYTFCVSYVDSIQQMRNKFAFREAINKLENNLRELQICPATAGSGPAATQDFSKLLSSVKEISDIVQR

Row | SMILES | IC50 [1] [nM] | Ratio AβTotal IC50/Aβ42 IC50 [2] | IC50 [3] [nM] | IC50 [4] [nM] | IC50 [5] [nM]
1 | Cc1cc(F)ccc1-c1cccn2nc(NC3CCc4[nH]ncc4C3)nc12 (stereo not drawn) [Example 41, [8-(4-Fluoro-2-methyl-phenyl)-[1,2,4]triazolo[1,5-a]pyridine-2-yl]-(4,5,6,7-tetrahydro-1H-indazol-5-yl)-amine] | 4570 | 1 | – | – | –
2 | CCOC1Cc2c(cnn2CC)CC1Nc1nc2c(-c3cc(F)c(F)c(F)c3)cccn2n1 (stereo not drawn) [Example 50, (6-Ethoxy-1-ethyl-4,5,6,7-tetrahydro-1H-indazol-5-yl)-[8-(3,4,5-trifluoro-phenyl)-[1,2,4]triazolo[1,5-a]pyridine-2-yl]-amine] | 21700 | 1 | – | – | –
3 | CCc1nnn2c1CCC(Nc1nc3c(-c4ccc(F)cc4C)cccn3n1)C2 (stereo not drawn) [Example 52, (3-Ethyl-4,5,6,7-tetrahydro-[1,2,3]triazolo[1,5-a]pyridine-6-yl)-[8-(4-fluoro-2-methyl-phenyl)-[1,2,4]triazolo[1,5-a]pyridine-2-yl]-amine] | 740 | 2 | – | – | –
4 | CCc1nnc2n1CCC(Nc1nc3c(-c4ccc(F)cc4C)cccn3n1)C2 (stereo not drawn) [Example 53, (3-Ethyl-5,6,7,8-tetrahydro-[1,2,4]triazolo[4,3-a]pyridine-7-yl)-[8-(4-fluoro-2-methyl-phenyl)-[1,2,4]triazolo[1,5-a]pyridine-2-yl]-amine] | 1390 | 1 | – | – | –
5 | CCn1ncc2c1CCC(Nc1nc3c(-c4ccccc4Cl)cccn3n1)C2 (stereo not drawn) [Example 58, [8-(2-Chloro-phenyl)-[1,2,4]triazolo[1,5-a]pyridine-2-yl]-(1-ethyl-4,5,6,7-tetrahydro-1H-indazol-5-yl)-amine] | 60 | 34 | – | – | –
6 | CCn1ncc2c1CCC(Nc1nc3c(-c4ccc(Cl)cc4)cccn3n1)C2 (stereo not drawn) [Example 60, [8-(4-Chloro-phenyl)-[1,2,4]triazolo[1,5-a]pyridine-2-yl]-(1-ethyl-4,5,6,7-tetrahydro-1H-indazol-5-yl)-amine] | 60 | 113 | – | – | –
7 | CCn1ncc2c1CCC(Nc1nc3c(-c4ccc(F)c(Cl)c4)cccn3n1)C2 (stereo not drawn) [Example 61, [8-(3-Chloro-4-fluoro-phenyl)-[1,2,4]triazolo[1,5-a]pyridine-2-yl]-(1-ethyl-4,5,6,7-tetrahydro-1H-indazol-5-yl)-amine] | 20 | 152 | – | – | –
8 | CCn1ncc2c1CCC(Nc1nc3c(-c4cc(F)c(F)c(F)c4)cccn3n1)C2 (stereo not drawn) [Example 62, (1-Ethyl-4,5,6,7-tetrahydro-1H-indazol-5-yl)-[8-(3,4,5-trifluoro-phenyl)-[1,2,4]triazolo[1,5-a]pyridine-2-yl]-amine] | 30 | 128 | – | – | –
9 | CCn1ncc2c1CCC(Nc1nc3c(-c4cnccc4C)cccn3n1)C2 (stereo not drawn) [Example 64, (1-Ethyl-4,5,6,7-tetrahydro-1H-indazol-5-yl)-[8-(4-methyl-pyridin-3-yl)-[1,2,4]triazolo[1,5-a]pyridine-2-yl]-amine] | 730 | 41 | – | – | –
10 | CCn1ncc2c1CCC(Nc1nc3c(-c4cccnc4C)cccn3n1)C2 (stereo not drawn) [Example 65, (1-Ethyl-4,5,6,7-tetrahydro-1H-indazol-5-yl)-[8-(2-methyl-pyridin-3-yl)-[1,2,4]triazolo[1,5-a]pyridine-2-yl]-amine] | 680 | 44 | – | – | –
11 | CCn1ncc2c1CCC(Nc1nc3c(-c4cncc(C)c4)cccn3n1)C2 (stereo not drawn) [Example 66, (1-Ethyl-4,5,6,7-tetrahydro-1H-indazol-5-yl)-[8-(5-methyl-pyridin-3-yl)-[1,2,4]triazolo[1,5-a]pyridine-2-yl]-amine] | 200 | 154 | – | – | –
12 | CCn1ncc2c1CCC(Nc1nc3c(-c4ccc(N(C)C)nc4)cccn3n1)C2 (stereo not drawn) [Example 72, [8-(6-Dimethylamino-pyridin-3-yl)-[1,2,4]triazolo[1,5-a]pyridine-2-yl]-(1-ethyl-4,5,6,7-tetrahydro-1H-indazol-5-yl)-amine] | 50 | 538 | – | – | –
13 | COc1cc2ncnc(Nc3cccc(Cl)c3)c2cc1OC [Tyrphostin AG1478] | – | – | 421 | 4420 | 242
